Results: patent US10571448B2, “Method and system for comprehensive evaluation of organic compound and heavy metal pollution in water based on fish electrocardio” (priority 2018, dated 2020)

Columns and labels:
koi = assay: 48 h semi-lethal concentration of heavy metal solutions for koi; settings: recorded as 1 toxic unit (1 TU)
zebrafish [1] = assay: Zebrafish electro-cardio indexes under deltamethrin exposure, with Pearson correlation to environmental stress E; settings: as concentration increased (0.52, 2, 2.6 μg/L), 0-48 h
Method: Fish electro-cardio signals respectively before and after the fish is exposed to a solution containing a specific organic compound are gathered by the real-time and miniaturized fish electro-cardio acquisition system, and various electro-cardio indexes are respectively extracted.
The correlation between environmental stress and respective extracted electro-cardio indexes is analyzed according to Pearson Correlation Analysis to select an electro-cardio index suitable for the assessment of water quality with respect to this specific organic compound.
A linear regression model between the environmental stress and respective electro-cardio indexes is analyzed and assessed according to Akaike Information Criterion and the sum of square error to finally obtain an electro-cardio index suitable for the assessment of water quality with respect to the specific organic compound.
In the present method, the real-time electro-cardio signals were acquired from multiple fishes respectively exposed to different concentrations of the specific organic compound. Firstly, the zebrafish was exposed to an organic solvent deltamethrin solution. […]
The acquired electro-cardiographs were subjected to filtering and interference removal to become clearer; the analyzed data was processed, and then was analyzed by Matlab software and SPSS software to estimate the electro-cardio changes based on data differences. […]

zebrafish [2] = assay: 48 h medial lethal concentration of deltamethrin for zebrafish; format: in vivo; settings: recorded as 1 toxic unit (1 TU)
Excerpt: Three zebrafishes were used in each exposed group.

[Cl][Cd][Cl] [cadmium chloride]
48 h semi-lethal concentration (koi): 23.6 mg/L

CC1(C)[C@H](C(=O)O[C@H](C#N)c2cccc(Oc3ccccc3)c2)[C@@H]1C=C(Br)Br [deltamethrin]
PR interval, QRS interval, ST interval and QT interval (zebrafish [1]): increased
amplitudes of P-wave, Q-wave, R-wave, S-wave and T-wave (zebrafish [1]): decreased
48 h medial lethal concentration (zebrafish [2]): 5.2 µg/L

[Mn+2] [manganese]
48 h semi-lethal concentration (koi): 2.75 mg/L

[Cl][Hg][Cl] [mercury chloride]
48 h semi-lethal concentration (koi): 0.13 mg/L
